Source: patent US6017958A, “Method of treating malignant tumors with thyroxine analogues having no significant hormonal activity” (Octamer, Inc., priority 1997, dated 2000)
Where a name gives a salt, the structure may show the parent alone.

Legend:
pADPRT = conditions: parent 6-amino-1,2-benzopyrene; cited from earlier work
tumor = conditions: parent 6-amino-1,2-benzopyrene; cited from earlier work
HIV = conditions: parent 6-amino-1,2-benzopyrene; cited from earlier work
MDA-MB-231 cells = assay: Flow cytometry / M phase block; assay type: cell-based, human; conditions: colcemid 0.1 μg/ml, 4 hrs
Description: The MDA-MB-231 cell line was obtained from ATCC (Rockville, Md., USA) and cells were cultured in T-75 flasks at 37° C. in Minimum Essential Medium-alpha, supplemented with 10% FCS. In controls, not receiving DIME, 0.1 μg/ml colcemid was added to cultures for 4 hrs prior to the collection of metaphase-blocked cells and preparation of cell spreads. […] Cells (10^7) were isolated from T-75 trypsinization for 5 min with 0.025% trypsin, and sedimented by centrifugation, resuspended and kept in 10 ml of 75 mM KC1 at 37° C. for 10 min, resedimented, and fixed in 10 ml methanol-acetic acid, with four successive changes of methanol-acetic acid. An aliquot of the final cell suspension (100 μl) was dropped on ethanol-cleaned slides and air-dried.
Cells exposed to different treatments were grown to confluence, trypsinized, and washed with phosphate buffered saline (PBS). For nuclear analysis, cells were fixed in Vindelov Citrate cell buffer: sucrose 250 mM, trisodium citrate. 2H20 40 mM, DMSO 50 ml in 1000 ml solution, pH 7.6. Normal human lymphocytes obtained from blood were used as controls. Each cell sample and control was counted with a hemacytometer and the cell concentration was adjusted to 2×10^6 cells/ml. Two million cells from each cell line in a total volume of 2 ml were washed twice with fresh PBS, treated with 200 μg/ml RNAase at 37° C. for 30 min, and stained with 10 μg/ml propidium iodide for 45 min. Flow cytometric analysis was performed on a FACScan benchtop flow cytometer (Becton-Dickinson, San Jose, Calif., USA) equipped with an air-cooled argon laser tuned to 488 nm. Twenty thousand events were collected as six parameter list mode data for analysis and archival storage. Two light scatter parameters (forward and side), propidium iodide fluorescence measured at 575/26 nm and above 620 nm, and doublet discrimination by fluorescence pulse width and area were acquired at 1024 data channel resolution. Acquisition threshold was set on propidium iodide positive events above channel 100. Gating to exclude small debris, large clumps and cell doublets was done post acquisition.

Rana pipiens tadpoles = conditions: tadpole metamorphosis; cited from earlier work
[1] = system: mouse pituitary thyrotropic tumors / non-malignant mouse pituitary adenoma; conditions: cited from earlier work
[2] = system: iodine uptake into the thyroid; conditions: rat, in vivo; cited from earlier work
Earl's L cells = conditions: Kirshan, 1968; cited from earlier work

## Nc1ccc2oc(=O)ccc2c1I [5-iodo-6-amino-1,2-benzopyrone]
pADPRT
  pADPRT inhibitory potency versus parent compound: significantly augmented
tumor
  antitumor action versus parent compound: significantly augmented
HIV
  antiHIV activity versus parent compound: significantly augmented

## CN[C@H]1CCc2cc(OC)c(OC)c(OC)c2-c2ccc(OC)c(=O)cc21 [colcemid, reference compound]
MDA-MB-231 cells
  cell cycle block in M phase, comparison of DIME and colcemid: indistinguishable with respect to the cell cycle block in M phase

## N[C@@H](Cc1cc(I)c(Oc2cc(I)c(O)c(I)c2)c(I)c1)C(=O)O [thyroxine]
Rana pipiens tadpoles
  metamorphosis / cell differentiating activity: induces cell differentiation
[1]
  growth of mouse pituitary tumor: depress growth of non-malignant mouse pituitary thyrotropic tumors
[2]
  suppression of iodine uptake by the thyroid: suppresses uptake of iodine by the thyroid

## CC[C@]1(O)C[C@@H]2CN(CCc3c([nH]c4ccccc34)[C@@](C(=O)OC)(c3cc4c(cc3OC)N(C)[C@H]3[C@@](O)(C(=O)OC)[C@H](OC(C)=O)[C@]5(CC)C=CCN6CC[C@]43[C@@H]65)C2)C1 [vinblastine sulfate]
Earl's L cells
  metaphase block / multinucleation: induces metaphase blocked multinucleated cells
